{"source": "patent US20220233555A1", "about": "“Improved administration of glycylcyclines by inhalation” (Stichting Radboud universitair medisch centrum, priority 2019, published 2022)", "key": {"[1]": {"conditions": "in vivo, cited from earlier work"}, "M. abscessus [2]": {"test_system": "M. abscessus", "conditions": "cited from earlier work"}, "[3]": {"conditions": "cited from earlier work"}, "[4]": {"conditions": "in vivo; cited from earlier work"}, "M. abscessus [5]": {"test_system": "M. abscessus", "experiment": "Intrapulmonary aerosol M. abscessus infection in GM-CSF KO mice, lung CFU determination", "assay_type": "in vivo, Mycobacterium abscessus", "conditions": "for Log10 CFU count After 4 weeks: GM-CSF KO mice, lungs, 5 days a week for 4 weeks, at start 4.80, untreated 3.93"}, "[6]": {"test_system": "M. abscessus and M. chelonae infections", "conditions": "cited from earlier work"}, "[7]": {"conditions": "rat, in vivo; cited from earlier work"}}, "data": [{"smiles": "CN(C)c1cc(NC(=O)CNC(C)(C)C)c(O)c2c1C[C@H]1C[C@H]3[C@H](N(C)C)C(O)=C(C(N)=O)C(=O)[C@@]3(O)C(O)=C1C2=O", "note": "[tigecycline]", "values": [{"measurement": "half-life", "setting": "[1]; human", "result": 36, "unit": "h"}, {"measurement": "excreted unchanged in the urine", "setting": "[1]", "result": "not more than 15%"}, {"measurement": "volume of distribution", "setting": "[1]", "result": "> 10", "unit": "L/kg"}, {"measurement": "log kill of M. abscessus", "setting": "M. abscessus [2]; at 200 mg/day, short-term inhibitory effect", "result": 1, "unit": "log kill"}, {"measurement": "maximum microbial kill", "setting": "M. abscessus [2]; at higher doses", "result": 1.37, "unit": "log10 CFU/mL"}, {"measurement": "Protein binding", "setting": "[3]", "result": "approximately 68%"}, {"measurement": "dose at which gastrointestinal adverse events were dose limiting", "setting": "[4]", "result": 300, "unit": "mg"}, {"measurement": "nausea, share of tigecycline recipients", "setting": "[4]", "result": 48.5, "unit": "%"}, {"measurement": "vomiting, share of tigecycline recipients", "setting": "[4]", "result": 29.4, "unit": "%"}, {"measurement": "bacterial colonies after culturing lung tissue", "setting": "M. abscessus [5]; 2.5 mg cohorts, 9 out of 10 mice, 4 weeks", "result": "no bacterial colonies were visible"}, {"measurement": "log 10 CFU count of the mouse with incomplete response", "setting": "M. abscessus [5]; 2.5 mg cohorts, one mouse with abscess formation, 4 weeks", "result": 0.5, "unit": "log 10 CFU"}, {"measurement": "Log10 CFU count After 4 weeks", "setting": "M. abscessus [5]; inhaled 0.25 mg/dose", "result": 3.28, "unit": "Log10 CFU"}, {"measurement": "Log10 CFU count After 4 weeks", "setting": "M. abscessus [5]; inhaled 1.25 mg/dose", "result": 0.695, "unit": "Log10 CFU"}, {"measurement": "Log10 CFU count After 4 weeks", "setting": "M. abscessus [5]; inhaled 2.5 mg/dose", "result": 0.50, "unit": "Log10 CFU"}, {"measurement": "cases with adverse events reported", "setting": "[6]; human, in vivo, iv", "result": "about 90%"}, {"measurement": "patients with serious adverse events", "setting": "[6]; human, in vivo, iv", "result": "29 out of 52"}, {"measurement": "patients who stopped tigecycline therapy early because of adverse events", "setting": "[6]; human, in vivo", "result": 27, "unit": "%"}, {"measurement": "patients with improvement", "setting": "[6]; intravenous 100 mg then 50 mg every 12 h, part of a multidrug regimen", "result": "about 60%"}, {"measurement": "penetration into tissues", "setting": "[7]", "result": "good penetration into tissues"}]}]}
